In brackets after ≈: the same amount, converted by molar mass. Where two headings read alike, the source gives them in different places.
Assays:
[1] = system: Spodoptera littoralis larvae; assay: Insecticidal leaf dip bioassay screening; settings: for Toxicity index %: 72 hours, fenoxycarb's LC50/compound's LC50 * 100; for LC50: Spodoptera littoralis, foliar, 72 h
Description: Five concentrations (200, 100, 50, 25, 12.5 ppm) were designed for this synthetic compound and the reference fenoxycarb's compound as the dynamic ingredients based on ppm via diluting the commercial formulation.
In this experiment, the synthetic compound was tested for its insecticidal bioactivity using the industry-standard leaf dip bioassay techniques. Preparation of the compound stocks to create 1000 ppm, 0.1 g of compounds 2 were dissolved in five mL of Dimethyl formamide & combined with 5 mL of distilled water. Until usage, the stocks were kept in a refrigerator. The target substance test results were noted & the concentrations needed to destroy 50% (LC50) of S. littoralis larvae were calculated. The target compound was employed in five different concentrations, & 0.1% Tween 80 was employed as a surfactant. Castor bean leaf discs (nine centimeters in diameter) were dipped in the concentration under test for ten seconds, then fed to 2th & 4th larvae, which were roughly the same size and housed in glass jars (five pound). Each action carried out 3 times with ten larvae each. The mortality equalized via Abbott's formula. Calculations of mortality setback line were measurably rummage via probity analysis. Harmfulness index was strongminded via sun equations. The mortality results of larval insect were estimated through employing probit analysis through a statistics (LDP-line) equation which estimate the LC50 values with 95% fiducially limits of lower, upper confidence limit and slope.

aquatic insects = settings: cited from earlier work
[2] = read-out: LC50 (mg/L) at 95%, 2nd instar larvae, laboratory strain S. littoralis, after 72 hours of treatment
[3] = read-out: LC50 (mg/L) at 95%, 4th instar larvae, laboratory strain S. littoralis, after 72 hours of treatment

Structure (SMILES) | Toxicity index % ([1]; 2nd instar larvae) [%] | Toxicity index % ([1]; 4th instar larvae) [%] | LC50 [1, 2] [mg/L] | LC50 [1, 3] [mg/L] | LC50 (aquatic insects) [µg/mL] | activity against Spodoptera littoralis ([1]; 2nd and 4th instar larvae, FIGS. 1A-1B, compared with Fenoxycarb)
CCOC(=O)NCCOc1ccc(Oc2ccccc2)cc1 [fenoxycarb, reference compound] | 100 | 100 | 5.94 (≈ 19.7 µM) | 59.9 (≈ 199 µM) |  | 
CCc1ccc(C(=O)NN(C(=O)c2cc(C)cc(C)c2)C(C)(C)C)cc1 [tebufenozide] |  |  |  |  | 100 to 1000 | 
O=C(Nc1ccccc1)C1=CN=C(Nc2ccc(Cl)cc2)O/C(=N/c2ccccc2)O1 [Compound 2, (2E)-4-[(4-chlorophenyl)amino]-N-phenyl-2-(phenylimino)-1,3,5-dioxazepine-7-carboxamide] | 10.31 | 23.54 | 57.6 (≈ 133 µM) | ~254 (≈ 588 µM) |  | active against Spodoptera littoralis
